± gives the standard deviation of the averaged measurements.
Columns and labels:
Settings in all cases: treatment time: 3 days
[1] = system: UT-SCC-24B; assay: maximal % inhibition of viability relative to DMSO; higher = stronger effect
Protocol: (§1)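 HNSCC cell lines (500 cells/well, 384-well) were cultured on plastic, on top of (2D) or embedded (3D) in Matrigel or human leiomyoma matrix Myogel (500 ug/mL; Myogel 3D mixed with rat collagen I). Cells were treated for 3 days with 5 ten-fold concentrations of each drug, and viability was read by CellTiter-Glo. Viability was normalised to DMSO and benzethonium chloride controls and fitted with the FIMM DSRT pipeline to give IC50 (nM), maximal % inhibition and DSS. Suffixes _1/_2/_3 are replicates. Only inhibition-mode (IC50) fits are kept.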

[2] = system: UT-SCC-81; assay: as above
Protocol: as §1

[3] = system: UT-SCC-73; assay: as above
Protocol: as §1

[4] = system: UT-SCC-14; assay: as above
Protocol: as §1

[5] = system: UT-SCC-28; assay: as above
Protocol: as §1

[6] = system: UT-SCC-42A; assay: as above
Protocol: as §1

[7] = system: UT-SCC-8; assay: as above
Protocol: as §1

[8] = system: UT-SCC-106A; assay: as above
Protocol: as §1

[9] = system: UT-SCC-40; assay: as above
Protocol: as §1

[10] = system: UT-SCC-42B; assay: as above
Protocol: as §1

[11] = system: UT-SCC-44; assay: as above
Protocol: as §1

[12] = system: UT-SCC-24B; assay: relative IC50 (midpoint of the fitted curve; maximal inhibition may be below 50%); higher = less potent
Procedure, shortened: (§2)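 HPV-negative HNSCC cell lines were seeded at 500 cells/well in 384-well plates on plastic, on Matrigel- or Myogel-coated wells (500 µg/mL), or embedded in Matrigel or Myogel plus rat collagen I. Compounds were given at five 10-fold concentrations for 3 days, and viability was read by CellTiter-Glo 2.0 luminescence. Signals were normalised to vehicle (0.1% DMSO) and cell-killing control wells. Percent-inhibition dose–response curves were fitted in the FIMM pipeline to derive IC50, maximal inhibition and drug sensitivity score.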

[13] = system: UT-SCC-81; assay: as above
Procedure, shortened: as §2

[14] = system: UT-SCC-14; assay: as above
Procedure, shortened: as §2

[15] = system: UT-SCC-28; assay: as above
Procedure, shortened: as §2

[16] = system: UT-SCC-42A; assay: as above
Procedure, shortened: as §2

[17] = system: UT-SCC-8; assay: as above
Procedure, shortened: as §2

[18] = culture condition: embedded in Matrigel
[19] = culture condition: embedded in Myogel + collagen I
[20] = culture condition: on top of Matrigel
[21] = culture condition: on top of Myogel
[22] = culture condition: plastic 2D (no matrix)

## Cc1c(CN2CCN(C(=O)[C@H](C)O)CC2)sc2c(N3CCOCC3)nc(-c3cnc(N)nc3)nc12 [Apitolisib]
[1]; [18]
  maximal % inhibition of viability: 91.37 ± 0.75%
[1]; [19]
  maximal % inhibition of viability: 92.1 ± 2.7%
[1]; [20]
  maximal % inhibition of viability: 90.4 ± 1.1%
[1]; [21]
  maximal % inhibition of viability: 90.53 ± 0.42%
[1]; [22]
  maximal % inhibition of viability: 92.97 ± 0.47%
[2]; [18]
  maximal % inhibition of viability: 93.5 ± 1.6%
[2]; [19]
  maximal % inhibition of viability: 81.1 ± 4.5%
[2]; [20]
  maximal % inhibition of viability: 88.93 ± 0.85%
[2]; [21]
  maximal % inhibition of viability: 79.9 ± 1.5%
[2]; [22]
  maximal % inhibition of viability: 82.8 ± 3.6%
[3]; [18]
  maximal % inhibition of viability: 84.2 ± 2.6%
[3]; [19]
  maximal % inhibition of viability: 76.2 ± 4.4%
[3]; [20]
  maximal % inhibition of viability: 82.4 ± 0.53%
[3]; [21]
  maximal % inhibition of viability: 79.5 ± 2.6%
[3]; [22]
  maximal % inhibition of viability: 81.8 ± 2.3%
[4]; [18]
  maximal % inhibition of viability: 84.33 ± 0.67%
[4]; [19]
  maximal % inhibition of viability: 80.8 ± 3%
[4]; [20]
  maximal % inhibition of viability: 85.5 ± 3.3%
[4]; [21]
  maximal % inhibition of viability: 79.4 ± 0.92%
[4]; [22]
  maximal % inhibition of viability: 82.1 ± 3.8%
[5]; [18]
  maximal % inhibition of viability: 63.5 ± 2.3%
[5]; [19]
  maximal % inhibition of viability: 76.8 ± 4.2%
[5]; [20]
  maximal % inhibition of viability: 69.97 ± 0.67%
[5]; [22]
  maximal % inhibition of viability: 68.4 ± 2.8%
[6]; [18]
  maximal % inhibition of viability: 79.9 ± 3.6%
[6]; [19]
  maximal % inhibition of viability: 75.8 ± 1.8%
[6]; [20]
  maximal % inhibition of viability: 80.1 ± 2.3%
[6]; [21]
  maximal % inhibition of viability: 75.2 ± 1.4%
[6]; [22]
  maximal % inhibition of viability: 81 ± 1.5%
[7]; [18]
  maximal % inhibition of viability: 97.57 ± 0.12%
[7]; [19]
  maximal % inhibition of viability: 87.6 ± 4.4%
[7]; [20]
  maximal % inhibition of viability: 94.8 ± 1.1%
[7]; [21]
  maximal % inhibition of viability: 90.4 ± 1.6%
[7]; [22]
  maximal % inhibition of viability: 94 ± 1.2%
[8]; [18]
  maximal % inhibition of viability: 69.8 ± 1.9%
[8]; [19]
  maximal % inhibition of viability: 60.4 ± 6.1%
[8]; [20]
  maximal % inhibition of viability: 74.7 ± 0.85%
[8]; [21]
  maximal % inhibition of viability: 66 ± 4%
[8]; [22]
  maximal % inhibition of viability: 81.2 ± 5%
[9]; [18]
  maximal % inhibition of viability: 89.1 ± 2.1%
[9]; [19]
  maximal % inhibition of viability: 78.6 ± 1.7%
[9]; [20]
  maximal % inhibition of viability: 87.3 ± 1.2%
[9]; [21]
  maximal % inhibition of viability: 64 ± 9.4%
[9]; [22]
  maximal % inhibition of viability: 74.7 ± 2.4%
[10]; [18]
  maximal % inhibition of viability: 86.7 ± 1.6%
[10]; [20]
  maximal % inhibition of viability: 76.3 ± 2.2%
[10]; [21]
  maximal % inhibition of viability: 58.6 ± 2%
[10]; [22]
  maximal % inhibition of viability: 64.5 ± 1.8%
[11]; [18]
  maximal % inhibition of viability: 57.8 ± 1.6%
[11]; [19]
  maximal % inhibition of viability: 65.8 ± 3.9%
[11]; [20]
  maximal % inhibition of viability: 58.2 ± 1.4%
[11]; [21]
  maximal % inhibition of viability: 65.9 ± 2%
[11]; [22]
  maximal % inhibition of viability: 63.5 ± 5%
[12]; [18]
  relative IC50: 0.891 µM
[12]; [19]
  relative IC50: 0.736 µM
[12]; [20]
  relative IC50: 0.874 µM
[12]; [21]
  relative IC50: 1.15 µM
[12]; [22]
  relative IC50: 0.85 µM
[13]; [18]
  relative IC50: 0.396 µM
[13]; [19]
  relative IC50: 0.748 µM
[13]; [20]
  relative IC50: 1.3 µM
[13]; [21]
  relative IC50: 1.04 µM
[13]; [22]
  relative IC50: 1.14 µM
[14]; [18]
  relative IC50: 1.21 µM
[14]; [19]
  relative IC50: 1.81 µM
[14]; [20]
  relative IC50: 1.51 µM
[14]; [21]
  relative IC50: 1.93 µM
[14]; [22]
  relative IC50: 2 µM
[15]; [18]
  relative IC50: 0.33 µM
[15]; [19]
  relative IC50: 1.05 µM
[15]; [20]
  relative IC50: 0.244 µM
[15]; [22]
  relative IC50: 0.352 µM
[16]; [18]
  relative IC50: 1.51 µM
[16]; [19]
  relative IC50: 1.11 µM
[16]; [20]
  relative IC50: 1.32 µM
[16]; [21]
  relative IC50: 1.41 µM
[16]; [22]
  relative IC50: 1.09 µM
[17]; [18]
  relative IC50: 1.33 µM
[17]; [19]
  relative IC50: 2.37 µM
[17]; [20]
  relative IC50: 1.38 µM
[17]; [21]
  relative IC50: 1.28 µM
[17]; [22]
  relative IC50: 1.41 µM

— the supplement of paper PMC7017272
